Data as given in PMC12040169 (PLOS Biology, 2025).

Assay: in vitro
Details: human, hela cells, % viability

Cc1ccc(C2=CCN(CC(=O)Nc3nc(C)c(C)s3)CC2)o1 [CBK283607]
viability at 28.5 h, 10 µM: 99.1%

Cc1cc(C)n(CC(=O)NC2CCCOc3c(F)cccc32)n1 (stereo not shown) [CBK305553]
viability at 28.5 h, 10 µM: 106%

O=c1[nH]c(=O)n(Cc2cccnc2)c2nc[nH]c12 [CBK291260]
viability at 28.5 h, 10 µM: 111%

CC(C)(CO)Cn1c(=O)[nH]c2ncc(-c3ccco3)nc21 [CBK064721]
viability at 28.5 h, 10 µM: 98.8%

CN(C)c1cccc(C(=O)Nc2nc3ccc(S(N)(=O)=O)cc3s2)c1 [CBK287602]
viability at 28.5 h, 10 µM: 95.8%

c1ccc(-c2c(-c3ccccc3)n(Cc3ccco3)c3ncn4nc(-c5ccncc5)nc4c23)cc1 [CBK265298]
viability at 28.5 h, 10 µM: 89.6%

Cc1ccccc1CN(CC(=O)NC1CC1)S(=O)(=O)c1ccc(Cl)cc1 [CBK265757]
viability at 28.5 h, 10 µM: 98.3%

CCN(CC)CCN1C(=O)C(O)=C(C(=O)c2cccs2)C1c1ccccn1 (stereo not shown) [CBK269319]
viability at 28.5 h, 10 µM: 76.3%

Cc1cc(COC(=O)N2CCC(CO)CC2)cc(C)n1 [CBK200152]
viability at 28.5 h, 10 µM: 91%

O=C(/C=C/c1ccc(Cl)cc1Cl)NC(=S)Nc1ccccc1F [CBK264332]
viability at 28.5 h, 10 µM: 108%

CN(Cc1ccccc1)S(=O)(=O)c1ccc2c(c1)n(C)c(=O)n2C [CBK266644]
viability at 28.5 h, 10 µM: 95.6%

CCC(C)NCc1cccc(Oc2ncccn2)c1 (stereo not shown) [CBK288090]
viability at 28.5 h, 10 µM: 106%

C=CCn1c(Cc2csc(NC(=O)c3ccc(Cl)cc3)n2)n[nH]c1=S [CBK295318]
viability at 28.5 h, 10 µM: 86.7%

Cc1c(Cl)cccc1NC(=O)c1cnc2scc(C)n2c1=O [CBK287463]
viability at 28.5 h, 10 µM: 117%

O=CN1CCc2c([nH]c3ccccc23)C12CCN(CC1CC1)CC2 [CBK040315]
viability at 28.5 h, 10 µM: 91.8%

COc1ccccc1CC(CC(=O)O)C(=O)O (stereo not shown) [CBK261508]
viability at 28.5 h, 10 µM: 91.6%

CN1CCN(c2ccc(-c3cnc(N)c(NC4CCOCC4)n3)cc2)CC1 [CBK064114]
viability at 28.5 h, 10 µM: 88.8%

Cc1cc(-c2nccnc2NCc2cccc(Cl)c2)cc(C)c1O [CBK036646]
viability at 28.5 h, 10 µM: 87.4%

CC(C)[C@H]1CN(Cc2ccco2)CCN1Cc1ccco1 [CBK284271]
viability at 28.5 h, 10 µM: 79.3%

Cc1c(C(=O)N(C)Cc2csc(Br)c2)nnn1C1CCNCC1 [CBK304491]
viability at 28.5 h, 10 µM: 104%

O=C(O)CSc1nc2ccccc2n2cnnc12 [CBK269831]
viability at 28.5 h, 10 µM: 92.8%

COc1cc(CNC(=O)NC(=O)C2CCN(C(C)C)CC2)cc(OC)c1OC [CBK034800]
viability at 28.5 h, 10 µM: 82.9%

COCCN1C(=O)CN(Cc2ccccc2)C1=O [CBK162369]
viability at 28.5 h, 10 µM: 95.1%

COc1ccc(C(=O)NCc2ccc(S(N)(=O)=O)cc2)cc1[N+](=O)[O-] [CBK263629]
viability at 28.5 h, 10 µM: 105%

CCc1[nH]ncc1C(=O)N1CCN(c2nccc(OC)n2)CC1 [CBK304915]
viability at 28.5 h, 10 µM: 86.4%

CCc1nnc(CN(CC2CCCO2)C2CCC(C)CC2)n1C (stereo not shown) [CBK304475]
viability at 28.5 h, 10 µM: 106%

COc1ccc(C)cc1NC(=S)NCc1cnn(C)c1 [CBK267025]
viability at 28.5 h, 10 µM: 106%

CCOc1ccc(NC(=O)C(=O)NC2CCCCC2)cc1 [CBK261822]
viability at 28.5 h, 10 µM: 105%

CC(C)(C)OC(=O)N1CCN(c2ncc([N+](=O)[O-])s2)CC1 [CBK000135]
viability at 28.5 h, 10 µM: 92.1%

O=C(c1cccs1)N1CCC(n2cnc3cccnc32)CC1 [CBK283938]
viability at 28.5 h, 10 µM: 88.4%

O=C(CSc1nc2sc3c(c2c(=O)[nH]1)CCCC3)NCCN1CCOCC1 [CBK264064]
viability at 28.5 h, 10 µM: 111%

CC(=O)Nc1ccc(-c2cncc(N(C)CCN(C)C)n2)cc1 [CBK065694]
viability at 28.5 h, 10 µM: 97.8%

CC(C)Cn1ncc2cc(C(=O)Nc3ccnn3C(C)C)cnc21 [CBK304938]
viability at 28.5 h, 10 µM: 79%

Cn1c(O)c(CCNc2cc([C@H]3C[C@@H](N)C3)nc(C3CC3)n2)cnc1=O [CBK306819]
viability at 28.5 h, 10 µM: 85%

Cc1ccccc1C(=O)NCC(=O)Nc1ccc2cc(Br)cnc2n1 [CBK063312]
viability at 28.5 h, 10 µM: 96.5%

O=C1Nc2ccccc2C1Cc1cccc(OC(F)F)c1 (stereo not shown) [CBK287892]
viability at 28.5 h, 10 µM: 95%

Cc1ccc(OCCCC(=O)Nc2ccc(C(N)=O)cc2)c(C)c1 [CBK268032]
viability at 28.5 h, 10 µM: 93.8%

Cc1cc(CNS(=O)(=O)N2CCCC2)c2[nH]c(C)c(C)c2c1 [CBK282772]
viability at 28.5 h, 10 µM: 95.1%

CC(C)NC(=O)Cn1c(-c2ccc(F)cc2)cc2cccnc21 [CBK284862]
viability at 28.5 h, 10 µM: 107%

O=C(Cn1cc(C(=O)NCc2ccccc2)ccc1=O)Nc1cc(F)ccc1N1CCCC1 [CBK285998]
viability at 28.5 h, 10 µM: 97.8%

COc1cc(Nc2cncc(-c3ccc(O)cc3)n2)c(Cl)cc1C(=O)NCC1CCCO1 (stereo not shown) [CBK126468]
viability at 28.5 h, 10 µM: 100%

COc1ccc(Nc2cccc(-c3cnc(OC)nc3OC)n2)cc1 [CBK036825]
viability at 28.5 h, 10 µM: 89.6%

CCOc1ccc(S(=O)(=O)N2CCCCC2)cc1-c1nc2c(C(C)(C)C)nn(C)c2c(=O)[nH]1 [CBK265119]
viability at 28.5 h, 10 µM: 113%

Cc1ccc(CSCC(=O)N2CCC(Cc3ccccc3)CC2)cc1 [CBK058739]
viability at 28.5 h, 10 µM: 95.6%

CC(C)(Cc1ccccc1)NCC(O)COc1ccc2c(c1)C1CCC2C1 (stereo not shown) [CBK018228C]
viability at 28.5 h, 10 µM: 86.4%

Cc1nn(CC(=O)N(C)C2CCCCC2)c(=O)c2cc3occc3n12 [CBK283653]
viability at 28.5 h, 10 µM: 92.4%

COc1ccc(CCNS(=O)(=O)c2cccc([N+](=O)[O-])c2)cc1OC [CBK263618]
viability at 28.5 h, 10 µM: 89.5%

Cc1ccc(C2C3=C(CC(C)(C)CC3=O)Nc3[nH][nH]c(=O)c32)o1 (stereo not shown) [CBK288147]
viability at 28.5 h, 10 µM: 104%

Cc1ccc(NC(=O)CSc2nnc(C(O)c3ccccc3)n2-c2ccccc2)c(Br)c1 (stereo not shown) [CBK267421]
viability at 28.5 h, 10 µM: 89.8%

Cc1ccc2[nH]c3c(c2c1)CCOC31CCN(CCOc2cccc3c2CCCC3=O)CC1 [CBK040230]
viability at 28.5 h, 10 µM: 83.3%

CCCOc1ccc(S(=O)(=O)NCCN2CCOCC2)c2ccccc12 [CBK269045]
viability at 28.5 h, 10 µM: 99.1%

Cc1ccc(S(=O)(=O)CCc2noc(-c3n[nH]c4ccccc34)n2)cc1 [CBK288598]
viability at 28.5 h, 10 µM: 104%

CCCC/C=C/c1cncc(NC2CCC(N)CC2)n1 (stereo not shown) [CBK037827]
viability at 28.5 h, 10 µM: 97.2%

COc1ccc(S(=O)(=O)Nc2nc3c(s2)C(=O)CC(C)(C)C3)cc1 [CBK095611]
viability at 28.5 h, 10 µM: 94.7%

CCCSc1nc2cc(C(=O)OC)ccc2c(=O)n1CC1CCCO1 (stereo not shown) [CBK306031]
viability at 28.5 h, 10 µM: 91%

Cc1nc[nH]c1CN(CCCn1ccnc1)CC1CC=CCC1 (stereo not shown) [CBK283218]
viability at 28.5 h, 10 µM: 83%

O=C(O)c1[nH]nc2c1COc1ccccc1-2 [CBK266356]
viability at 28.5 h, 10 µM: 97.5%

Cc1ccc(-c2nnc(C3CCCN(C(=O)C(C)C)C3)o2)s1 (stereo not shown) [CBK283058]
viability at 28.5 h, 10 µM: 96.9%

Cc1cccnc1NC(=O)c1cccc(C(=O)Nc2ncccc2C)c1 [CBK262184]
viability at 28.5 h, 10 µM: 88.6%

CS(=O)(=O)N(CC(=O)NC1CCCCC1)c1cccc2ccccc12 [CBK263770]
viability at 28.5 h, 10 µM: 83.9%

CN1C[C@@H](NC(=O)NCc2ccccc2)C[C@H]1c1nc(-c2cncnc2)no1 [CBK288878]
viability at 28.5 h, 10 µM: 108%

COc1ccc(C(CNC(=O)Cn2c(-c3cccc(C)c3)n[nH]c2=S)N2CCOCC2)cc1OC (stereo not shown) [CBK297900]
viability at 28.5 h, 10 µM: 88.2%

COCCOCC(=O)N1CC(=O)N(c2ccccc2C#N)CC1C (stereo not shown) [CBK307258]
viability at 28.5 h, 10 µM: 91.7%

CC(C)NC(=O)c1ccc(-n2cccn2)c(C#Cc2cccnc2)c1 [CBK284523]
viability at 28.5 h, 10 µM: 94.3%
